Experimental data as given in paper PMC10952593, “Synthetic cannabinoid receptor agonists are monoamine oxidase‐A selective inhibitors” (The Febs Journal, 2023).
Read-outs that look alike come from different tables or passages of the source.

Legend:
Format in all cases: biochemical
[1] = target: T1, MAO-B (Homo sapiens, UniProt P27338); experiment: UV/Vis, benzaldehyde formation at […] nm
T1 construct: gene MAOB; FAD enzyme; PDB 2V5Z was only the docking model
T1 sequence (P27338 2-520): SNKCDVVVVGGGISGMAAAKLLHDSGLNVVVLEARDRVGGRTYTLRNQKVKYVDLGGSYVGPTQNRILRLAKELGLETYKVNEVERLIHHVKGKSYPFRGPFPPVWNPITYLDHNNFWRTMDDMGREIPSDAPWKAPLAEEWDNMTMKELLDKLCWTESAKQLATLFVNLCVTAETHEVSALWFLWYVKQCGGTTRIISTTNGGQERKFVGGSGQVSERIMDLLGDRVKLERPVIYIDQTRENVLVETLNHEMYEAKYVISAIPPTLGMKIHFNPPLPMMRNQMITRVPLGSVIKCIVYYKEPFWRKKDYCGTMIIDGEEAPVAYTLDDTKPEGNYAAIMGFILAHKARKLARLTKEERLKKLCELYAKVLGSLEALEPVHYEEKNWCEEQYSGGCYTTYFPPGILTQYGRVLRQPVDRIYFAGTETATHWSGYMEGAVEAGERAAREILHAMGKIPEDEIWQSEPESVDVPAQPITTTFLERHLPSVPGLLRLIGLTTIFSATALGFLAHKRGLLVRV

[2] = target: T2, MAO-A (Homo sapiens, UniProt P21397); experiment: steady-state UV/Vis, 4-hydroxyquinoline at […] nm; settings: 20 μM MAO-A as printed, 50 mM HEPES pH 7.5, 0.5% Triton X-100, 25 °C
T2 construct: gene MAOA; FAD enzyme; PDB 2Z5X was only the docking model
T2 sequence (P21397 1-527): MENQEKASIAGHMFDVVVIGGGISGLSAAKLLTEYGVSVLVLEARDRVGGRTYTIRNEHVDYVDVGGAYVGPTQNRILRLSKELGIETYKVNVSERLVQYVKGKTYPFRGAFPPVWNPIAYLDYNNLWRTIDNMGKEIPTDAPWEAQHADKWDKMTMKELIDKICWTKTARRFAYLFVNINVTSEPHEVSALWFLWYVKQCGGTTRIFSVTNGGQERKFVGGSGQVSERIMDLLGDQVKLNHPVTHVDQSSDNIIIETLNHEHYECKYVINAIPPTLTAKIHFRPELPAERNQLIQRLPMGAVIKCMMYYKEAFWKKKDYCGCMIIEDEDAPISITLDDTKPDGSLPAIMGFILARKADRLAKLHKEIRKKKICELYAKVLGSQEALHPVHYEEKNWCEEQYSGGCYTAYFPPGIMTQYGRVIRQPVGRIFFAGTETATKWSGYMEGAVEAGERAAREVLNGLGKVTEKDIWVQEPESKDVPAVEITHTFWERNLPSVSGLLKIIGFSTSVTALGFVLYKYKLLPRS

[3] = target: T2, MAO-A; experiment: UV/Vis, 4-hydroxyquinoline formation at […] nm
[4] = target: T1, MAO-B; experiment: UV/Vis, benzaldehyde formation at […] nm; settings: 1.5 mM benzylamine, 30 μM MAO-B [sic], 50 mM HEPES pH 7.5, 0.5% Triton X-100, 25 °C; IC50 relative to fitted Imax (Hill-type fit); unreliable

Row | Compound | IC50 [1] [µM] | also measured
1 | FCCCCCn1ncc2ccccc21 [compound 7, 1‐(5‐fluoropentyl)‐1H‐Indazole] | 620 ± 20 | –
2 | NCCC(=O)c1ccccc1N [compound 12, kynuramine] | – | Km [2]: 140 ± 30 µM
3 | COC(=O)C(NC(=O)c1cn(CCCCCF)c2ccccc12)C(C)(C)C (stereo not shown) [compound 2, methyl‐2‐[[1‐(5‐fluoropentyl)indole‐3‐carbonyl]amino]‐3,3‐dimethyl‐butanoate] | – | IC50 [3]: 77.1 ± 1.09 µM; MAO-B / IC50 [4]: 690 ± 420 µM
4 | CCCCCn1ncc2ccccc21 [compound 9, 1‐pentyl‐1H‐Indazole] | 540 ± 30 | –
5 | CCCCCn1ccc2ccccc21 [compound 8, 1‐pentyl‐1H‐Indole] | 630 ± 30 | –
6 | N‐[[1‐(5‐fluoropentyl)‐1H‐indazol‐3‐yl]carbonyl]‐3‐methyl‐D‐valine methyl ester [compound 1] | – | IC50 ([3]; 1 mM kynuramine, 20 μM MAO-A as printed, 50 mM HEPES pH 7.5, 0.5% Triton X-100, 25 °C, IC50 relative to fitted Imax (Hill-type fit)): 87.8 ± 4.38 µM; IC50 ([1]; 1.5 mM benzylamine, 30 μM MAO-B [sic], 50 mM HEPES pH 7.5, 0.5% Triton X-100, 25 °C, IC50 relative to fitted Imax (Hill-type fit)): 420 ± 190 µM
7 | Cn1ccc2ccccc21 [compound 10, 1‐methyl‐1H‐Indole] | 500 ± 20 | –
8 | FCCCCCn1ccc2ccccc21 [compound 6, 1‐(5‐fluoropentyl)‐1H‐Indole] | 650 ± 90 | –
